This passage reports Km results from PMC4673880, “Structure and substrate selectivity of the 750-kDa α6β6 holoenzyme of geranyl-CoA carboxylase” (Nature Communications, 2015).

The assay addresses T1, PfGCC (geranyl-CoA carboxylase holoenzyme, α6β6) (Pseudomonas protegens, UniProt Q4K8Z5).
T1 construct: gene atuC; bicistronic; beta N-terminal His6-tagged (tag not removed), alpha untagged; expressed in E. coli BL21 Star (DE3); 750-kDa α6β6 dodecamer; with Geranyl-CoA carboxylase alpha subunit (biotin-containing; BC, BT and BCCP domains)
The assay can be described thus: coupled pyruvate kinase / lactate dehydrogenase assay, ATP hydrolysis as NADH loss at […] nm. To be noted: pH 8.0, 0.5 mM ATP, 8 mM MgCl2, 40 mM KHCO3, 250 mM KCl; cis/trans mixture, only ~25% cis, concentration counted as total; read-out: apparent Km. It counts as biochemical.

geranyl-CoA: the Michaelis-Menten constant (Km) amounted to 50 µM.
